Test results taken from patent US6355658B1, “Coumarin derivatives, methods of preparation and application as medicines” (Centre National de la Recherche Scientifique, priority 1997, dated 2002).
Like-named read-outs stand apart in the source and are kept apart here.

Legend:
human leukocyte elastase = target: T1, human leukocyte elastase (Homo sapiens, UniProt P08246); assay: Inactivation kinetics of human leukocyte elastase (chromogenic substrate MeOSuc-Ala2-Pro-Val-pNA); type: biochemical; settings: 25° C., pH 8.0; for kinact/KI: inactivation phase of transient inactivation, read-out: Ki/KI or kobs/[I], LHE; for Ki/KI or kobs/[I], LHE: inactivation phase
T1 sequence (P08246 30-247 limits assumed): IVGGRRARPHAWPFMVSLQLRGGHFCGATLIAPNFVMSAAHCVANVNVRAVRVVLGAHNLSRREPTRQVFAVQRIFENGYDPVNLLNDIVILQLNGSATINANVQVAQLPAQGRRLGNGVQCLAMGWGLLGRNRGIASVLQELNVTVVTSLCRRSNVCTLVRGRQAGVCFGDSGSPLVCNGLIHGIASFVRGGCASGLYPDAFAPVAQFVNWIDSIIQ
Method: (§1) The inactivating or inhibitory properties of the coumarin derivatives were tested with respect to a certain number of enzymes: human leukocyte elastase, bovine α-chymotrypsin, human thrombin and bovine trypsin. The kinetic measurements were taken at 25° C. in the following buffers: 0.1 M Hepes, 0.5 M NaCl, 0.01% Tween 80, pH 8.0 (human leukocyte elastase); 0.025 M NaH2PO4, 0.05 M KCl, pH 7.5 (α-chymotrypsin); 0.01 M Tris, 0.01 M Hepes, 0.1 M NaCl, 0.1% PEG-6000, pH 7.5 (human thrombin); 0.1 M Tris, 0.01 M CaCl2, pH 7.5 (bovine trypsin). The chromogenic substrates used to determine the activity of the enzymes are: MeOSuc-Ala2-Pro-Val-pNA (human leukocyte elastase); Suc-Ala2-Pro-Phe-pNA (α-chymotrypsin); H-D-Phe-Pip-Arg-pNA (human thrombin); N-benzoyl-Arg-pNA (bovine trypsin) (pNA: para-nitroaniline).
(§2) The interaction of a suicide substrate with a serine protease corresponds to the minimum reaction scheme described in equation 1 in which E represents the enzyme, I represents the inhibitor, E-I represents the acyl-enzyme and E-I′ represents the inactivated enzyme [Silverman R. B., 1988, “Mechanism-based enzyme inactivation: chemistry and enzymology”, volume 1 CRC Press, Boca Raton, Fla.]: [drawing 76]
(§3) When k4 is small compared to k3, equation 1 can be simplified (equation 2, [Daniels et al., 1983, J. Biol. Chem., 258: 15046-15053]): [drawing 77]
(§4) Considering the first instants of the reaction, the system reduces to a simplified equation of the form of equation 2.
(§5) The kinetic constants characterizing the inactivation of the enzymes with the coumarin derivatives were determined using either the conventional sampling method (or batchwise method) or a method placing the inhibitor and the substrate in competition (or continuous method); these methods are described by Pochet et al. [Pochet et al., 1996, J. Med. Chem., 39: 2579-2585].
(§6) The inactivation of serine proteaaes with the coumarin derivatives is thus characterized by the following constants (see Eq. 2):
(§7) KI: apparent dissociation constant of an enzyme-inhibitor complex located upstream of ki
(§8) ki: first-order rate constant for inactivation at infinite inhibitor concentration
(§9) ki/KI: index of the overall inactivating efficacy of the inhibitor.

human thrombin = target: T2, human thrombin (Homo sapiens, UniProt P00734); assay: Inactivation kinetics of human thrombin (chromogenic substrate H-D-Phe-Pip-Arg-pNA); type: biochemical; settings: 25° C., pH 7.5, N.I. = non-inactivator; for kinact/KI: read-out: Ki/KI or kobs/[I], Thrombin
T2 construct: human thrombin
Method: as §1, §2, §3, §4, §5, §6, §7, §8, §9

bovine α-chymotrypsin = target: T3, bovine α-chymotrypsin (Bos taurus, UniProt P00766); assay: Inactivation kinetics of bovine α-chymotrypsin (chromogenic substrate Suc-Ala2-Pro-Phe-pNA); type: biochemical; settings: 25° C., pH 7.5, N.I. = non-inactivator; for kinact/KI: TABLE 1, 2-pyridyl esters, read-out: Ki/KI or kobs/[I], α-CT
T3 construct: bovine α-chymotrypsin
Method: as §1, §2, §3, §4, §5, §6, §7, §8, §9

bovine trypsin = target: T4, bovine trypsin (Bos taurus, UniProt P00760); assay: Inactivation kinetics of bovine trypsin (chromogenic substrate N-benzoyl-Arg-pNA); type: biochemical; settings: 25° C., pH 7.5, N.I. = non-inactivator
T4 sequence (P00760 24-246): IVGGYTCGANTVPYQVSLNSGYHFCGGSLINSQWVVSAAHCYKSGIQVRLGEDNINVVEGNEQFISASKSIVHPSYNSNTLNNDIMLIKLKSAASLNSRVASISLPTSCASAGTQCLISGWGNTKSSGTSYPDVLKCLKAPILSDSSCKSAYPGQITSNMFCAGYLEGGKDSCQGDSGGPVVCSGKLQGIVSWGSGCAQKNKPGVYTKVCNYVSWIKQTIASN
Method: as §1, §2, §3, §4, §5, §6, §7, §8, §9

[1] = TABLE 1, 2-pyridyl esters, inactivation phase
[2] = TABLE 3, no chloromethyl in position 6

Row | Compound | kinact/KI (human leukocyte elastase; TABLE 1, 2-pyridyl esters) [M⁻¹ s⁻¹] | Ki/KI or kobs/[I], LHE (human leukocyte elastase; TABLE 1) [M⁻¹ s⁻¹] | kinact/KI (human thrombin; [1]) [M⁻¹ s⁻¹] | Ki/KI or kobs/[I], Thrombin (human thrombin; TABLE 1, inactivation phase) | kinact/KI (bovine α-chymotrypsin) [M⁻¹ s⁻¹] | melting point [°C] | Ki/KI or kobs/[I], Trypsin (bovine trypsin; TABLE 1, 2-pyridyl esters) | Ki/KI or kobs/[I], Trypsin (bovine trypsin; TABLE 1) | Ki/KI or kobs/[I], Thrombin (human thrombin; [1]) | kinact/KI (human leukocyte elastase; [2]) [M⁻¹ s⁻¹] | Ki/KI or kobs/[I], LHE (human leukocyte elastase; TABLE 3) [M⁻¹ s⁻¹] | Ki/KI or kobs/[I], Thrombin (human thrombin; TABLE 3) | Ki/KI or kobs/[I], Thrombin (human thrombin; second table headed TABLE 3) | Ki/KI or kobs/[I], α-CT (bovine α-chymotrypsin; [2]) | Ki/KI or kobs/[I], α-CT (bovine α-chymotrypsin; second table headed TABLE 3) | Ki/KI or kobs/[I], Trypsin (bovine trypsin; TABLE 3) | Ki/KI or kobs/[I], Trypsin (bovine trypsin; second table headed TABLE 3)
1 | O=C(Oc1ccccn1)c1cc2cc(CCl)ccc2oc1=O [Ic′″9, 2-pyridyl 6-chloromethyl-2-oxo-2H-1-benzopyran-3-carboxylate] | 420 | 420 | ~240 | ~240 M⁻¹ s⁻¹ | 1670 | 125 to 129 | N.I.^a — — N.I. N.I. | N.I.^a — — N.I. N.I. | – | – | – | – | – | – | – | – | –
2 | Cc1cccc(OC(=O)c2cc3cc(CCl)ccc3oc2=O)n1 [Ic′″10, 6-methyl-2-pyridyl 6-chloromethyl-2-oxo-2H-1-benzopyran-3-carboxylate] | 200 | 200 | – | N.I. | 3300 | 160 to 162 | N.I.^a — — N.I. N.I. | N.I.^a — — N.I. N.I. | N.I. | – | – | – | – | – | – | – | –
3 | Cc1ccnc(OC(=O)c2cc3cc(CCl)ccc3oc2=O)c1 [Ic′″11, 4-methyl-2-pyridyl 6-chloromethyl-2-oxo-2H-1-benzopyran-3-carboxylate] | 300 | 300 | 3900 | 3900 M⁻¹ s⁻¹ | 5950 | 152 to 154 | N.I.^a — — N.I. N.I. | N.I.^a — — N.I. N.I. | – | – | – | – | – | – | – | – | –
4 | CC(=O)OCc1ccc2oc(=O)c(C(=O)Oc3cncc(Cl)c3)cc2c1 [Id3, 5-chloro-3-pyridyl 6-acetoxymethyl-2-oxo-2H-1-benzopyran-3-carboxylate] | – | – | – | – | – | 153 to 155 | – | – | – | 107000 | 107000 | N.I. N.I. N.I. N.I. N.I. N.I. N.I. N.I. — | N.I. N.I. N.I. N.I. N.I. N.I. N.I. N.I. — | N.I.^a N.I. N.I. N.I. N.I. N.I. N.I. N.I. | N.I.^a N.I. N.I. N.I. N.I. N.I. N.I. N.I. | N.I. N.I. N.I. N.I. N.I. N.I. N.I. — — | N.I. N.I. N.I. N.I. N.I. N.I. N.I. — —
5 | CCC(=O)OCc1ccc2oc(=O)c(C(=O)Oc3cncc(Cl)c3)cc2c1 [Id6, 5-chloro-3-pyridyl 6-propionyloxymethyl-2-oxo-2H-1-benzopyran-3-carboxylate] | – | – | – | – | – | 156 to 158 | – | – | – | 62000 | 62000 | N.I. N.I. N.I. N.I. N.I. N.I. N.I. N.I. — | N.I. N.I. N.I. N.I. N.I. N.I. N.I. N.I. — | N.I.^a N.I. N.I. N.I. N.I. N.I. N.I. N.I. | N.I.^a N.I. N.I. N.I. N.I. N.I. N.I. N.I. | N.I. N.I. N.I. N.I. N.I. N.I. N.I. — — | N.I. N.I. N.I. N.I. N.I. N.I. N.I. — —
6 | CC(C)C(=O)OCc1ccc2oc(=O)c(C(=O)Oc3cncc(Cl)c3)cc2c1 [Id9, 5-chloro-3-pyridyl 6-dimethylacetoxymethyl-2-oxo-2H-1-benzopyran-3-carboxylate] | – | – | – | – | – | 162 to 164 | – | – | – | 45000 | 45000 | N.I. N.I. N.I. N.I. N.I. N.I. N.I. N.I. — | N.I. N.I. N.I. N.I. N.I. N.I. N.I. N.I. — | N.I.^a N.I. N.I. N.I. N.I. N.I. N.I. N.I. | N.I.^a N.I. N.I. N.I. N.I. N.I. N.I. N.I. | N.I. N.I. N.I. N.I. N.I. N.I. N.I. — — | N.I. N.I. N.I. N.I. N.I. N.I. N.I. — —
7 | CCCC(=O)OCc1ccc2oc(=O)c(C(=O)Oc3cncc(Cl)c3)cc2c1 [Id10, 5-chloro-3-pyridyl 6-butyryloxymethyl-2-oxo-2H-1-benzopyran-3-carboxylate] | – | – | – | – | – | 146 to 148 | – | – | – | 67600 | 67600 | N.I. N.I. N.I. N.I. N.I. N.I. N.I. N.I. — | N.I. N.I. N.I. N.I. N.I. N.I. N.I. N.I. — | N.I.^a N.I. N.I. N.I. N.I. N.I. N.I. N.I. | N.I.^a N.I. N.I. N.I. N.I. N.I. N.I. N.I. | N.I. N.I. N.I. N.I. N.I. N.I. N.I. — — | N.I. N.I. N.I. N.I. N.I. N.I. N.I. — —
